Measured values published in paper PMC10536132, “Arginine Gemini-Based Surfactants for Antimicrobial and Antibiofilm Applications: Molecular Interactions, Skin-Related Anti-Enzymatic Activity and Cytotoxicity” (Molecules, 2023).
Like-named read-outs stand apart in the source and are kept apart here. Marks after values point to notes of the source that are not given here.

Assays:
[1] = Apparent pKa by direct titration with NaOH; type: physicochemical; settings: aqueous solution, concentration above the minimum aggregation concentration; pH at semi-equivalence point
Experimental: In order to determine the ionization state of these gemini surfactants at the pH used to investigate their biological properties, the apparent acid pKa was determined for each of them. The pKap value has been determined by means of a direct titration with NaOH of an aqueous solution of each compound. The surfactant concentrations used were in all cases higher than the minimum aggregation concentration, thus avoiding possible deviations in the pK value due to the monomer–aggregate balance. The pKap values can be estimated from the pH at the semi-equivalence point that is reached when the molar ratio of protonated and non-protonated species is 1:1. In these conditions, we have that the pH = pKa.
The pKa value of each compound has been determined by means of a direct titration with NaOH of an aqueous solution of each compound. The pH was measured using the pH electrode Thermo Electron Corporation ORION 8103SC and the temperature was controlled by a thermostatic bath, Heto CBN 8-30. The pKa values can be estimated from the pH at the semi-equivalence point, which contains a 1:1 molar ratio of protonated and non-protonated species; at this point, pH = pKap.

[2] = target: porcine pancreatic elastase (Sus scrofa, UniProt P00772); experiment: Elastase inhibitory assay; type: biochemical; settings: 40 µL of 1000 µg/mL stock; EGCG 250 μM
Experimental: The elastase inhibition was tested according to the method described by […] et al.. First, a stock solution of each surfactant at 1000 μg/mL was prepared in sterile ultrapure water. A stock solution of porcine pancreatic elastase at 3.33 mg/mL in sterile ultrapure water was also prepared. The substrate […] (Ala) 3-p-nitroanilide was dissolved in 0.2 mM Tris-HCl buffer solution (pH 8.0). The samples (40 μL) were then diluted and incubated together with the enzyme for 15 min prior to the substrate addition. Negative control was sterile ultrapure water, while EGCG (250 μM or 0.114 mg/mL) was used as the positive control. The absorbance at λ = 410 nm was measured immediately after the substrate addition and continuously during the next 2 h using an Elx800 Microplate Reader (Biotek®). […] The anti-elastase activity (in %), determined in triplicate, was calculated according to the following equation:(2) Elastase inhibitory activity %=A1-A2/A1×100 where A1 and A2 represent the absorbance in the absence and presence of the testing samples, respectively.

[3] = tested on: bovine hyaluronidase; experiment: Hyaluronidase inhibitory activity; type: biochemical; settings: negative inhibition values
Experimental: The hyaluronidase inhibitory activity was performed according to the method used by Altinyay et al. with some modifications. Briefly, a work solution containing bovine hyaluronidase (7900 units/mL) in 0.1 M acetate buffer (pH 3.6) was prepared. Fifty microliters of the work solution were mixed 1:1 with the surfactants’ solution in 5% DMSO. For the negative control, 50 μL of 5% DMSO was used, while EGCG was used as positive control. After 20 min of incubation at 37 °C, 50 μL of calcium chloride (12.5 mM) was added to the mixture and again incubated for 20 min at 37 °C. At that point, 250 μL sodium hyaluronate (1.2 mg/mL) was added and incubated for 40 min at 37 °C. After incubation, the mixture was treated with 50 μL of 0.4 M NaOH and 100 μL of 0.2 M sodium borate and then incubated for 3 min in a boiling water bath. After cooling to room temperature, 1.4 mL of p-dimethylaminobenzaldehyde solution was added to the reaction mixture, being further incubated at 37 °C for 20 min. The resulting colored solution was measured at λ = 585 nm (PerkinElmer-Lambda 35, Brazil). The hyaluronidase inhibitory activity of each sample was calculated according to the following formula:(3) Hyaluronidase inhibitory activity %=A1−A2/A1×100 where A1 and A2 represent the absorbance in the absence and presence of the testing sample, respectively.

[4] = Cell viability, NRU assay; type: cell-based, human; settings: human, HaCaT cells (immortal human keratinocytes); NRU, HaCaT, surfactant in solution at 35.6 µg/mL, 24 h; read-out: cellular viability
Experimental: (§1) The immortal human keratinocyte (HaCaT) and the squamous cell carcinoma (A431) were obtained from Celltec, University of Barcelona. The cells were grown in DMEM medium (4.5 g/L glucose) supplemented with 10% (v/v) FBS, 2 mM L-glutamine, 100 U/mL of penicillin and 100 μg/mL of streptomycin at 37 °C under 5% CO2. Cells were routinely cultured in 75 cm^2 culture flasks and were trypsinized using trypsin-EDTA when reached approximately 80% of confluence.
(§2) HaCaT cells (1 × 10^5 cells/mL) and A431 cells (5 × 10^4 cells/mL) were grown at the defined densities into the central 60 wells of a 96-well microplate. Cells were incubated for 24 h under 5% CO2 at 37 °C. The medium was then removed and the cells were incubated with the surfactants (100 μL), previously diluted 1:1 (v/v), reaching a concentration of […] in DMEM medium supplemented with 5% FBS using two different colorimetric methods for quantification, as follows.
(§3) The accumulation of the neutral red dye in the lysosomes of viable, undamaged cells constitutes the basis of the neutral red uptake (NRU) assay. After the cells were incubated for 24 h with the corresponding systems at 35.6 µg/mL, the medium was removed and the surfactants´ solutions were incubated for 3 h with the NRU dye solution (50 μg/mL) dissolved in the medium without FBS and phenol red (Lonza). Cells were then washed with sterile PBS, followed by the addition of 100 μL of a solution containing 50% ethanol absolute and 1% acetic acid in distilled water to extract the non-adhered dye. The microplates were then stirred for 5 min at 25 °C to promote the dissolution. Finally, the absorbance of the resulting solutions was measured at λ = 550 nm using a Bio-Rad 550 microplate reader (Hercules, CA, USA).

[5] = Cell viability, NRU assay; type: cell-based; settings: human, A431 cells (squamous cell carcinoma), A431, surfactant in solution at 35.6 µg/mL, read-out: cellular viability
Experimental: as §1, §2, §3

[6] = parameters: method as in doi:10.1021/la981295l; settings: cited from earlier work
[7] = parameters: method as in doi:10.1021/la981295l; settings: cited from earlier work; remark: listed apart in the source
[8] = parameters: method as in doi:10.1021/la981295l; settings: cited from earlier work; remark: listed apart in the source

porcine pancreatic elastase, sequence (P00772 27-266): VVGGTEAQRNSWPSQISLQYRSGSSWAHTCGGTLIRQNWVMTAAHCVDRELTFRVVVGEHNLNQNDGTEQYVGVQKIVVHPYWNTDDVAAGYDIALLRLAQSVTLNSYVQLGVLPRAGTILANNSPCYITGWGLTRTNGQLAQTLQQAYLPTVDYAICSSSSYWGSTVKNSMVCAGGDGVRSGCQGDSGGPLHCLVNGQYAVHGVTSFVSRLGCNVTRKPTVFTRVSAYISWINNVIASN

- pKap [1]: 9.4
- anti-elastase activity (inhibition) [2]: 15.9%
- increase of hyaluronidase enzymatic activity [3]: 29.9%
SMILES: CCCCCCCCCCCC(=O)NC(CCCNC(=N)N)C(=O)NCCCCCCCCCNC(=O)C(CCCNC(=N)N)NC(=O)CCCCCCCCCCC (stereo not drawn) [C9(LA)2, Bis (N^α-lauroyl arginine 1,3-nonane) diamide]
- viability at 24 h, 35.6 µg/mL [4]: 60.7%
- viability at 24 h, 35.6 µg/mL [5]: 60.7%
- CMC (mM) Conductivity [6]: 0.3 * mM
- CMC (mM) Fluorescence [7]: 0.3 * mM
- CMC (mM) Surface Tension [8]: 0.003 * mM
- γcmc ([8]; surface tension at the cmc): 34 * mN/m
